Holding throughout (format): biochemical
One assay deals with Pim-3 (Homo sapiens (Human), UniProt Q86V86). In words: Pim-3 kinase assay. The note with it: 1 mM ATP, biotin-labeled BAD peptide substrate; read-out: Pim3 IC50. The procedure: (§1) Pim-1 and Pim-3 kinase assays-20 μL reactions were run in white 384 well polystyrene plates dotted with 0.8 μL compound/DMSO in the assay buffer (50 mM Tris, pH 7.5, 0.01% Tween-20, 5 mM MgCl2, 0.01% BSA, 5 mM DTT), containing […] Biotin-labeled BAD peptide substrate (AnaSpec 62269), 1 mM ATP, and 2.5 pM (Pim-1, Invitrogen PV3503) or 1.25 pM (Pim-3, Millipore 14-738) enzyme for 1 h at 25° C. Reactions were stopped by addition of 10 μL STOP Buffer (150 mM Tris, pH=7.5, 150 mM NaCl, 75 mM EDTA, 0.01% Tween-20, 0.3% BSA) supplemented with Phospho-Bad (Ser112) Antibody (Cell Signaling 9291) diluted 666-fold, and Streptavidin donor beads (PerkinElmer 6760002) along with Protein-A acceptor beads (PerkinElmer 6760137) at 15 μg/mL each. Supplementation of the STOP buffer with beads and stopping the reactions were done under reduced light. Prior to the stopping reactions STOP buffer with beads was pre-incubated for 1 h in the dark at room temperature. After stopping the reactions, plates were incubated for 1 h in the dark at room temperature before reading on a PHERAstar FS plate reader (BMG Labtech) under reduced light.

For a further assay, the target named is Pim-2 (Homo sapiens (Human), UniProt Q9P1W9). Briefly: Pim-2 kinase assay. The note with it: 1 mM ATP, fluorescein-labeled CREBtide peptide substrate; read-out: Pim2 IC50. How it is done:
Pim-2 kinase assay-20 μL reactions were run in white 384 well polystyrene plates dotted with 0.8 μL compound/DMSO in the assay buffer (50 mM Tris, pH 7.5, 0.01% Tween-20, 5 mM MgCl2, 0.01% BSA, 5 mM DTT), containing 0.05 μm Fluorescein-labeled CREBtide peptide substrate (Invitrogen PV3508), 1 mM ATP, and 1 nM enzyme (Invitrogen PV3649) for 2 h at 25° C. Reactions were stopped by addition of 10 μL TR-FRET Dilution Buffer (Invitrogen PV3574) with 30 mM EDTA and 1.5 nM LanthaScreen Tb-CREB pSer133 antibody (Invitrogen PV3566). After 30 min. incubation at room temperature, plates were read on a PHERAstar FS plate reader (BMG Labtech).

The target in a further assay is Pim-1 (Homo sapiens (Human), UniProt P11309). Briefly: Pim-1 kinase assay. The note with it: 1 mM ATP, biotin-labeled BAD peptide substrate; read-out: Pim1 IC50. The procedure:
as §1

Where only a bound is given, the exact number is not on record here.

Sequence of Pim-1 (P11309 whole entry): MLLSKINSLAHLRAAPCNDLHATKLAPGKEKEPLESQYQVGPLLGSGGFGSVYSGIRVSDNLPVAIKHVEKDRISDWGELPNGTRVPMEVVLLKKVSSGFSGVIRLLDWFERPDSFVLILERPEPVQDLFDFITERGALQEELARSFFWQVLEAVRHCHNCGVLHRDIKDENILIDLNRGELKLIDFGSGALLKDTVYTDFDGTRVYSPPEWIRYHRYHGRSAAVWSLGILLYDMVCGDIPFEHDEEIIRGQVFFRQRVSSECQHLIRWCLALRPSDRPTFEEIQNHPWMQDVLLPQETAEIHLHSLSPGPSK
Sequence of Pim-2 (Q9P1W9 whole entry): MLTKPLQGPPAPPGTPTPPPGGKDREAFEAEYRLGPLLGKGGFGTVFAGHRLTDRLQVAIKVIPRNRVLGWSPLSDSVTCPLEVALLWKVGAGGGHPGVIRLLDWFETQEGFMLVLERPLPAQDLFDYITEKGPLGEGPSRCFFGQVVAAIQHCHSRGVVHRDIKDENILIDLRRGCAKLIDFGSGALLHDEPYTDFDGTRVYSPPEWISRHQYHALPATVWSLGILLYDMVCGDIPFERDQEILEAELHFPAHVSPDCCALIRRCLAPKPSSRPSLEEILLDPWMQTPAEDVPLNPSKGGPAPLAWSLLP

Turning to `C[C@@H]1C[C@H](N)CN(c2ccncc2NC(=O)c2c(N)oc3cc(Cl)cnc23)C1` [Example 72, 2-Amino-N-{4-[(3S,5R)-3-amino-5-methyl-piperidin-1-yl]pyridin-3-yl}-6-chlorofuro[3,2-b]pyridine-3-carboxamide], the concentration for half-maximal inhibition (IC50) was at most 10 nM on Pim-3, 10 to 100 nM at Pim-2 and at most 10 nM on Pim-1.
For `COCCCc1cnc2c(C(=O)Nc3cnccc3N3C[C@H](C)C[C@H](N)C3)c(N)oc2c1` [Example 134, 2-Amino-N-{4-[(3S,5R)-3-amino-5-methylpiperidin-1-yl]pyridin-3-yl}-6-(3-methoxypropyl)furo[3,2-b]pyridine-3-carboxamide], the concentration for half-maximal inhibition (IC50) at Pim-3, at Pim-2 and on Pim-1 was at most 10 nM in each case.
Regarding `Nc1oc2cc(CCN3CC[C@@H](F)C3)cnc2c1C(=O)Nc1cnccc1N1C[C@@H](N)C[C@@H](C(F)(F)F)C1` [Example 138, 2-Amino-N-{4-[(3S,5R)-3-amino-5-(trifluoromethyl)piperidin-1-yl]pyridin-3-yl}-6-{2-[(3R)-3-fluoropyrrolidin-1-yl]ethyl}furo[3,2-b]pyridine-3-carboxamide], the half-maximal inhibitory concentration (IC50) on Pim-3, at Pim-2 and on Pim-1 was at most 10 nM throughout.
In the case of `Nc1sc2cc(OC3CC3)cnc2c1C(=O)Nc1cnccc1N1CCC[C@H](N)C1` [Example 14, 2-Amino-N-{4-[(3S)-3-aminopiperidin-1-yl]pyridin-3-yl}-6-cyclopropoxythieno[3,2-b]pyridine-3-carboxamide], the 50% inhibitory concentration (IC50) on Pim-3 is at most 10 nM; on Pim-2, above 2000 nM; on Pim-1, at most 10 nM.
For `CNC(=O)c1ccc(-c2cnc3c(C(=O)Nc4cnccc4N4C[C@H](C)C[C@H](N)C4)c(N)oc3c2)cn1` [Example 127, 2-Amino-N-(4-((3S,5R)-3-amino-5-methylpiperidin-1-yl)pyridin-3-yl)-6-(6-(methylcarbamoyl)pyridin-3-yl)furo[3,2-b]pyridine-3-carboxamide], the IC50 is at most 10 nM on Pim-3, 10 to 100 nM at Pim-2 and at most 10 nM at Pim-1.
As for `Cc1ccc2sc(N)c(C(=O)Nc3cnn(C)c3N3CCCC(N)CC3)c2n1` (stereo not drawn) [Example 43, 2-Amino-N-[5-(4-aminoazepan-1-yl)-1-methyl-1H-pyrazol-4-yl]-5-methylthieno[3,2-b]pyridine-3-carboxamide], the IC50 is 10 to 100 nM on Pim-3, above 1000 nM on Pim-2 and at most 10 nM on Pim-1.
Consider `Cc1ccc2sc(N)c(C(=O)Nc3cnccc3N3CCC[C@H](N)C3)c2n1` (stereo in doubt) [Example 42, 2-Amino-N-[4-(3-aminopiperidin-1-yl)pyridin-3-yl]-5-methylthieno[3,2-b]pyridine-3-carboxamide], for which the IC50 on Pim-3 is above 40 nM; on Pim-2, above 2000 nM; at Pim-1, above 40 nM.
For `Cc1cncc(NC(=O)c2c(N)oc3cc(C(F)(F)F)cnc23)c1N1C[C@@H](N)[C@H](O)[C@@H](C)C1` [Example 79, 2-Amino-N-{5-methyl-4-[(3R,4R,5S)-3-amino-4-hydroxy-5-methylpiperidin-1-yl]pyridin-3-yl}-6-(trifluoromethyl)-furo[3,2-b]pyridine-3-carboxamide], the 50% inhibitory concentration (IC50) on Pim-3 is at most 10 nM; on Pim-2 it was 10 to 100 nM; on Pim-1, at most 10 nM.
For the compound `Nc1oc2cc(C3CCC3)cnc2c1C(=O)Nc1cnccc1N1C[C@@H](N)[C@H](O)[C@@H](C2CC2)C1` [Example 125, 2-Amino-N-{4-[(3R,4R,5S)-3-amino-5-cyclopropyl-4-hydroxypiperidin-1-yl]pyridin-3-yl}-6-cyclobutylfuro[3,2-b]pyridine-3-carboxamide], the 50% inhibitory concentration (IC50) on Pim-3, at Pim-2 and on Pim-1 was at most 10 nM throughout.
Take `CN1CC(c2cnc3c(C(=O)Nc4cnccc4N4CCC[C@H](N)C4)c(N)sc3c2)C1` [Example 31, 2-Amino-N-{4-[(3S)-3-aminopiperidin-1-yl]pyridin-3-yl}-6-(1-methylazetidin-3-yl)thieno[3,2-b]pyridine-3-carboxamide]: the 50% inhibitory concentration (IC50) on Pim-3 is at most 10 nM; at Pim-2, 100 to 1000 nM; on Pim-1, at most 10 nM.
Consider `COCc1cnc2c(C(=O)Nc3cnccc3N3CCC[C@H](N)C3)c(N)sc2c1` [Example 34, 2-Amino-N-{4-[(3S)-3-aminopiperidin-1-yl]pyridin-3-yl}-6-(methoxymethyl)thieno[3,2-b]pyridine-3-carboxamide], for which the results for the concentration for half-maximal inhibition (IC50) at Pim-3, at Pim-2 and on Pim-1 were at most 10 nM, 100 to 1000 nM and at most 10 nM, respectively.
`CCCc1cnc2c(C(=O)Nc3cnccc3[C@H]3C[C@@H](N)[C@](C)(O)[C@@H](C)C3)c(N)oc2c1` [Example 84, 2-Amino-N-(4-((1R,3R,4R,5S)-3-amino-4-hydroxy-4,5-dimethylcyclohexyl)pyridin-3-yl)-6-propylfuro[3,2-b]pyridine-3-carboxamide]: the half-inhibitory concentration (IC50) on Pim-3 is at most 10 nM; at Pim-2, 10 to 100 nM; at Pim-1, at most 10 nM.
Consider `Cn1ncc(NC(=O)c2c(N)sc3cccnc23)c1N1CCC[C@H](N)C1` [Example 2, 2-Amino-N-{5-[(3S)-3-aminopiperidin-1-yl]-1-methyl-1H-pyrazol-4-yl}thieno[3,2-b]pyridine-3-carboxamide], for which the IC50 was at most 10 nM on Pim-3, 100 to 1000 nM at Pim-2 and at most 10 nM at Pim-1.
As for `Cn1cc(-c2cnc3c(C(=O)Nc4cnccc4N4C[C@@H](N)C[C@@H](C(F)(F)F)C4)c(N)oc3c2)cn1` [Example 109, 2-Amino-N-{4-[(3S,5R)-3-amino-5-(trifluoromethyl)piperidin-1-yl]pyridin-3-yl}-6-(1-methyl-1H-pyrazol-4-yl)furo[3,2-b]pyridine-3-carboxamide], the half-inhibitory concentration (IC50) was at most 10 nM at Pim-3, 10 to 100 nM on Pim-2 and at most 10 nM on Pim-1.
For the compound `CC(C)c1cnc2c(C(=O)Nc3cnccc3N3CCC[C@H](N)C3)c(N)oc2c1` [Example 50, 2-amino-N-{4-[(3S)-3-aminopiperidin-1-yl]pyridin-3-yl}-6-(iso-propyl)furo[3,2-b]pyridine-3-carboxamide], the IC50 is at most 10 nM on Pim-3, 10 to 100 nM at Pim-2 and at most 10 nM at Pim-1.
With `CC(C)C(=O)Nc1cnc2c(C(=O)Nc3cnccc3N3C[C@@H](N)[C@H](O)[C@@H](C)C3)c(N)sc2c1` [Example 143, 2-Amino-N-(4-((3R,4R,5S)-3-amino-4-hydroxy-5-methylpiperidin-1-yl)pyridin-3-yl)-6-isobutyramidothieno[3,2-b]pyridine-3-carboxamide], the concentration for half-maximal inhibition (IC50) at Pim-3 was at most 10 nM; on Pim-2 it was 10 to 100 nM; at Pim-1, at most 10 nM.
On to `COc1cnc2c(C(=O)Nc3cnccc3N3CCC[C@H](N)C3)c(N)sc2c1` [Example 12, 2-Amino-N-{4-[(3S)-3-aminopiperidin-1-yl]pyridin-3-yl}-6-methoxythieno[3,2-b]pyridine-3-carboxamide], for which the IC50 at Pim-3 is at most 10 nM; at Pim-2 it was 100 to 1000 nM; at Pim-1, at most 10 nM.
As to `Cn1ncc(NC(=O)c2c(N)sc3cc(-c4c(F)cccc4F)cnc23)c1N1CCCC(N)CC1` (stereo not drawn) [Example 27, 2-Amino-N-[5-(4-aminoazepan-1-yl)-1-methyl-1H-pyrazol-4-yl]-6-(2,6-difluorophenyl)-thieno[3,2-b]pyridine-3-carboxamide], the half-maximal inhibitory concentration (IC50) on Pim-3 is at most 10 nM; at Pim-2 it was 10 to 100 nM; at Pim-1 it was at most 10 nM.
With `COc1ccnc2c(C(=O)Nc3cnn(C)c3N3CCCC(N)CC3)c(N)sc12` (stereo not drawn) [Example 17, 2-Amino-N-[5-(4-aminoazepan-1-yl)-1-methyl-1H-pyrazol-4-yl]-7-methoxythieno[3,2-b]pyridine-3-carboxamide], the IC50 at Pim-3, on Pim-2 and at Pim-1 was at most 10 nM in each case.
For the compound `C[C@H]1CN(c2ccncc2NC(=O)c2c(N)oc3cc(C(F)(F)F)cnc23)C[C@@H](N)[C@@H]1O` [Example 68, 2-Amino-N-{4-[(3R,4R,5S)-3-amino-4-hydroxy-5-methylpiperidin-1-yl]pyridin-3-yl}-6-(trifluoromethyl)furo[3,2-b]pyridine-3-carboxamide], the 50% inhibitory concentration (IC50) on Pim-3 was at most 10 nM; on Pim-2, 10 to 100 nM; on Pim-1, at most 10 nM.

The term IC50 denotes the point on the concentration scale where inhibition reaches its midpoint.

(Values after patent publication US10000507B2, “Furo- and thieno-pyridine carboxamide compounds useful as pim kinase inhibitors” (Incyte Corporation, priority 2013, dated 2018).)
